Laboratory results taken from patent publication EP4653443A1, “STEREOISOMER AND DEUTERATED DERIVATIVE OF PYRAZOLOQUINAZOLINE COMPOUND AND USE” (Phil Rivers Technology Co., Ltd, priority 2023, dated 2024).

Key:
[1] = tested on: Caco-2 cells; assay: Permeability and transporter substrate test in Caco-2 cells (ABBA); type: in vitro ADME; details: Caco-2
Description: (§1) Apparent permeability coefficient (Papp, cm/s) and efflux ratio were calculated using Microsoft Excel.

[2] = as above; type: in vitro ADME; details: human, pH 7.4; for Papp A→B at 2 h, 5 µM: Caco-2, A to B, read-out: Average Papp PappA-B; for Papp B→A at 2 h, 5 µM: Caco-2, B to A, read-out: Average Papp PappB-A; for efflux ratio at 2 h, 5 µM: Caco-2, Papp(B-A)/Papp(A-B), read-out: Efflux Rate (ERa)
Description: as §1

[3] = Pharmacokinetic study in mice (IV and PO, plasma LC-MS/MS)
Description: The objective of this study is to investigate the pharmacokinetic properties of the disclosed compounds after tail vein intravenous injection (IV) and oral administration (PO) in female CD1 mice. Plasma was sampleed at 0, 0.083, 0.25, 0.5, 1, 2, 4, 7 and 24 hours post-dosing, and the drug concentrations in plasma at different time points were detected by LC-MS/MS, and the relevant pharmacokinetic parameters were calculated using WinNonlin software.
Experimental female CD1 mice were purchased from SPF Laboratory Animal Technology Co., Ltd., aged 6-8 weeks with body weights of 20-30 g. The female CD1 mice were housed in a controlled environment (set temperature at 20-25°C and relative humidity at 40-70%). A 12-hour light/12-hour dark cycle was maintained unless interrupted by study-related events.
Compound solutions are prepared in an ultra-clean workbench and prepared immediately before use, and mixed thoroughly prior to use to ensure formulation homogeneity.
Vehicle composition: 10% DMSO+90% (20%SBE-β-CD) Table 4. Doses Used in IV Administration
Vehicle composition: 10% DMSO + 90% (20%SBE-β-CD) Table 5. Doses Used in PO Administration
Vehicle composition: 0.5% MC + 1% Tween-20 Table 6. Doses Used in PO Administration
Prior to the experiment, the animals were randomly grouped. The mice were fasted for 12 hours before drug administration, and free feeding was resumed 4 hours after administration.
All blood samples were transferred into plastic microcentrifuge tubes containing anticoagulant (EDTA-K2), and then centrifuged at 4000 g for 5 minutes at 4°C. The supernatant was transferred into a microcentrifuge tube without anticoagulant, and the plasma was stored in a -75±15°C refrigerator until detection.
The blood samples were purified by HPLC and analyzed by mass spectrometry to obtain the plasma concentration-time curve of the disclosed compound.
The pharmacokinetic parameters were estimated by non-compartmental model method (calculated by Phoenix WinNonlin software).

[4] = tested on: Pancreatic cancer cell line BxPC-3; assay: BxPC-3 subcutaneous tumor xenograft mouse model (pancreatic cancer); type: in vivo; details: for TGI: test endpoint, TGITV
[5] = tested on: pancreatic cancer cell line (PSN1); assay: Proliferation inhibitory activity on cell line PSN1 (CellTiter-Glo, 72 hours); type: cell-based; details: for IC50: Homo sapiens, PSN1 cell proliferation; for Max Inhibition Percentage: PSN1 cells
Description: • a) Adherent cells need to be digested and centrifuged, while suspension cells can be directly centrifuged; • b) Resuspend with complete culture medium and count using an automatic cell counter; • c) Plate 6,000 cells per well for PSN1, and dilute the cell suspension to the required density; • d) Add 100 µL of cells per well, and culture overnight at 37°C in a 5% CO2 incubator to stabilize and balance the cells.
• a) Prepare the compound with DMSO as a solution of 200-fold final concentration; • b) Dilute the 200-fold compound to a 3-fold final concentration with complete culture medium; • c) Add 50 µL of the compound per well, use wells with the same volume of culture medium as controls, and continue culturing in a 37°C, 5% CO2 incubator for 72 hours.
• a) Equilibrate the cell plate and CTG reagent to room temperature; • b) Add 30 µL of CellTiter-Glo® reagent per well; • c) Incubate at room temperature for 15 minutes; • d) Detect with a microplate reader.
• 1) Calculate IC50 using GraphPad Prism 8; • 2) %Inh = (1-(Raw data - Meanmin) / (Meanmax - Meanmin))×100; • 3) Meanmax is the positive control well with only cells and the same volume of culture medium; • 4) Meanmin is the negative control well with only culture medium; • 5) Raw data refers to the signal values of wells with added compounds. For two replicate wells, they are denoted as Raw1 and Raw2.

[6] = Metabolic stability in liver microsomes (human); type: in vitro ADME; details: for Residual Amount (%) 15 min / Residual Amount (%) 30 min / Residual Amount (%) 45 min / Residual Amount (%) 60 min: Human, first line of pair; for half-life at 2 µM / microsomal CLint at 2 µM: pH 7.4
Description: For negative samples, add 80µL of PBS (100mM, pH = 7.4) solution. Vortex at 800 rpm for 10 seconds, then pre-incubate in a 37°C water bath for 10 minutes. • 4) After pre-incubation, add 2 µL of control drug or test compound to each well to initiate the reaction. The reaction is carried out in a 37°C water bath at 60 rpm. • 5) At 0.5, 15, 30, 45, and 60 minutes, take 50 µL of the reaction system from each well and add it to 200 µL of cold methanol solution containing the internal standard to terminate the reaction. • 6) Mix thoroughly and centrifuge at 4000 rpm at 4°C for 30 minutes. • 7) Take 100µL of supernatant and mix with 100µL ultrapure water for liquid-mass analysis. *Internal standards: 50nM alprazolam, 50nM labetalol and 100nM ketoprofen
The internal standard method is adopted, and the ratio of the sample peak area to the internal standard peak area is used to calculate the residual percentage (taking the ratio of the sample peak area to the internal standard peak area at 0.5 minutes as 100%).

[7] = 90 mg/kg p.o. q.d. 10 consecutive days
[8] = 30 mg/kg p.o. q.d. 10 consecutive days
[9] = 60 mg/kg p.o. q.d. 10 consecutive days

Row | Structure (SMILES) | Classification Efflux Transporter Substrate [1] | Papp A→B at 2 h, 5 µM [2] | Papp B→A at 2 h, 5 µM [2] | efflux ratio at 2 h, 5 µM [2] | F ([3]; PO 10 mg/kg vs IV 10 mg/kg) | IC50 [5] | Max Inhibition Percentage ([5]; first column of this head) | Max Inhibition Percentage ([5]; second column of this head) | Residual Amount (%) 15 min [6] | Residual Amount (%) 30 min [6] | Residual Amount (%) 45 min [6] | Residual Amount (%) 60 min [6] | Mouse Mortality Rate [4, 9] | TGI [4, 9] | half-life at 2 µM ([6]; Human liver microsomes) | microsomal CLint at 2 µM ([6]; Human liver microsomes) | also measured
1 | [2H]C1([2H])CN(c2ccc(OC(F)(F)F)c(Nc3ncc4c(n3)-c3c(c(C(N)=O)nn3CCO)CC4)c2)C([2H])([2H])[C@H]2CCCN21 [CPD04] | Probable (ERa ≧ 2) | 4.2 ×10⁻⁶ cm/s | 25.1 ×10⁻⁶ cm/s | 5.98 | 42.8% | 105 nM | 87.6 | 1.3 | 52.72% | 28.62% | 21.10% | 13.41% | – | – | – | – | Mouse Mortality Rate [4, 7]: 0%; TGI [4, 7]: 53%; half-life ([6]; Human liver microsomes): 0.349 h; microsomal CLint ([6]; Human liver microsomes): 66.2 µL/min/mg
2 | [2H]C1([2H])N(C)C([2H])([2H])C([2H])([2H])N(c2ccc(OC(F)(F)F)c(Nc3ncc4c(n3)-c3c(c(C(N)=O)nn3CCO)CC4)c2)C1([2H])[2H] [CPD06] | Probable (ERa ≧ 2) | 5.18 ×10⁻⁶ cm/s | 34.7 ×10⁻⁶ cm/s | 6.71 | 43.1% | 57 nM | 93.7 | 13.7 | 86.05% | 73.64% | 68.37% | 63.15% | 0% | 71% | 1.5 h | 15.4 µL/min/mg | Mouse Mortality Rate [4, 8]: 0%; TGI [4, 8]: 33%; toxic symptoms during the treatment ([4]; BxPC-3 tumor-bearing mice): No obvious toxic symptoms were observed
3 | CN1CCN(c2ccc(OC(F)(F)F)c(Nc3ncc4c(n3)-c3c(c(C(N)=O)nn3CCO)CC4)c2)CC1 [NMS-P937, onvansertib, reference compound] | Probable (ERa ≧ 2) | 6.09 ×10⁻⁶ cm/s | 34.2 ×10⁻⁶ cm/s | 5.61 | 27.1% | 53.7 nM | 85.9 | 2.3 | 80.23% | 73.16% | 69.74% | 58.94% | 25% | 61% | 1.44 h | 16.1 µL/min/mg | F ([3]; PO 5 mg/kg vs IV 2 mg/kg): 20.5%; mice died ([4]; 60 mg/kg p.o. q.d., 8 mice per group): 2
